Tests used:
Format in all cases: biochemical
MMP2 = target: T1, MMP2 (Homo sapiens, UniProt P08253); test: MMP-2 colorimetric inhibition assay (Enzo kit); conditions: colorimetric thiopeptide substrate, absorbance 415 nm; read-out: MMP2 IC50 class
T1 construct: purchased Enzo Life Sciences, Inc. BML-AK408
Experimental: (§1) The inhibitory activities of the compounds of the invention were assessed in 96-well microplate format using MMP1, MMP2, MMP9 and MMP13 colorimetric assay kits and TACE fluorometric assay kit from Enzo Life Sciences, Inc. The inhibitory effect of the compounds of the invention on ADAM10 activity were evaluated in 96-well microplate format using fluorometric assay from AnaSpec, Inc.
(§2) The MMP-2 Colorimetric Drug Discovery Kit (catalog #BML-AK408) is a complete assay system designed to screen MMP-2 inhibitors using a thiopeptide as a chromogenic substrate (Ac-PLG-[2-mercapto-4-methylpentanoyl]-LG-OC2H5). The MMP cleavage site peptide bond is replaced by a thioester bond in the thiopeptide. Hydrolysis of this bond by an MMP produces a sulfhydryl group, which reacts with DTNB [5,5′-dithiobis(2-nitrobenzoic acid), Ellman's reagent] to form 2-nitro-5-thiobenzoic acid, that can be detected spectrophotometrically.
(§3) The inhibitory activities of the compounds of the invention against MMP1, MMP2, MMP9 and MMP13 were tested according to the manufacturer's assay protocols and the absorbance at 415 nm was monitored using the Tecan Infinite® 200 Pro F Nano^+ microplate reader.
(§4) The normalized values were analyzed using GraphPadPrism 9 for Windows (GraphPad Software, San Diego, CA, USA) software by plotting inhibition curves and determining the IC50 values.
(§5) The calculated IC50 values were divided into the following classes: • A: <50 nM; B: 50-1000 nM; C: >1000-10,000 nM; D: >10,000 nM

MMP13 = target: T2, MMP13 (Homo sapiens, UniProt P45452); test: MMP-13 colorimetric inhibition assay (Enzo kit); conditions: colorimetric thiopeptide substrate, absorbance 415 nm; read-out: MMP13 IC50 class
T2 construct: purchased Enzo Life Sciences, Inc. BML-AK412
Experimental: as §1
as §2, with “MMP-13” for “MMP-2”, “#BML-AK412)” for “#BML-AK408)”, “screen” for “screen MMP-2”, “inhibitors of matrix metalloproteinase-13” for “inhibitors”
as §3, §4, §5

MMP9 = target: T3, MMP9 (Homo sapiens, UniProt P14780); test: MMP-9 colorimetric inhibition assay (Enzo kit); conditions: colorimetric thiopeptide substrate, absorbance 415 nm; read-out: MMP9 IC50 class
T3 construct: purchased Enzo Life Sciences, Inc. BML-AK410
T3 sequence (P14780 94-707): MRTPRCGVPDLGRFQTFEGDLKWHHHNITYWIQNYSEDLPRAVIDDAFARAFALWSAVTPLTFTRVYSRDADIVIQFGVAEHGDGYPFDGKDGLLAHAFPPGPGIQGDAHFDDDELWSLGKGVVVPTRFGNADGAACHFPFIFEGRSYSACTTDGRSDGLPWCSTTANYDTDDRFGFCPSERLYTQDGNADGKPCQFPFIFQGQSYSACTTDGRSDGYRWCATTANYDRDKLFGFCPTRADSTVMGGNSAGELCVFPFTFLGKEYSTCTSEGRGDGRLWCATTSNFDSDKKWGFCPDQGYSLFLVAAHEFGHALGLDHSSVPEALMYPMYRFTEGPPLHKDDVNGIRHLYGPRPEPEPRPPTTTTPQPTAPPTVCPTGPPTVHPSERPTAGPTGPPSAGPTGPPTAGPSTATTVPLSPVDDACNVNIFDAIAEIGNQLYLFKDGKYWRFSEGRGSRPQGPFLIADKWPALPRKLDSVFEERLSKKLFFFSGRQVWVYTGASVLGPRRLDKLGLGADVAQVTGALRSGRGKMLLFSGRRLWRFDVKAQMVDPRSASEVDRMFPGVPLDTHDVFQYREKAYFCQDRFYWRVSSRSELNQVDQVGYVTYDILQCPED
Experimental: as §1
as §2, with “MMP-9” for “MMP-2”, “#BML-AK410)” for “#BML-AK408)”, “screen” for “screen MMP-2”, “inhibitors of matrix metalloproteinase-9” for “inhibitors”
as §3, §4, §5

T1 sequence (P08253 110-452 limits assumed): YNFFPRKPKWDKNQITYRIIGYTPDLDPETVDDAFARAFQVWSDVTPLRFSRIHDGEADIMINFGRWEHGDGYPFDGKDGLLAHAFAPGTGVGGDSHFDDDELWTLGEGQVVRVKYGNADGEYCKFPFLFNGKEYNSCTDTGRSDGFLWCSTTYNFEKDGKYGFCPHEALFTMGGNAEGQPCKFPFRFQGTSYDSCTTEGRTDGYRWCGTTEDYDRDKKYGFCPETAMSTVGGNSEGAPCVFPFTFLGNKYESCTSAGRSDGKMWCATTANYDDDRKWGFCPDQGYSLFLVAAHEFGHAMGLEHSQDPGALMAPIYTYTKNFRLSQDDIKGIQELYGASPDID

IC50 (MMP2) [µM]	IC50 (MMP13) [µM]	IC50 (MMP9) [µM]	Compound
0.05 to 1	–	–	COCCOC(=O)N1CC2CCC(C(=O)NO)(C1)N2S(=O)(=O)c1cc(F)c(Oc2ccc(Cl)cc2)c(F)c1 (centres unmarked) [Example 1, 2-methoxyethyl 8-((4-(4-chlorophenoxy)-3,5-difluorophenyl)sulfonyl)-1-(hydroxycarbamoyl)-3,8-diazabicyclo[3.2.1]octane-3-carboxylate]
0.05 to 1	1 to 10	0.05 to 1	COCCOC(=O)N1CC2CCC(C(=O)NO)(C1)N2S(=O)(=O)c1cc(F)c(Oc2ccc(F)cc2)c(F)c1 (centres unmarked) [Example 2, 2-Methoxyethyl 8-((3,5-difluoro-4-(4-fluorophenoxy)phenyl)sulfonyl)-1-(hydroxy-carbamoyl)-3,8-diazabicyclo[3.2.1]octane-3-carboxylate]
0.05 to 1	–	1 to 10	O=C(c1ccncc1)N1CC2CCC(C(=O)NO)(C1)N2S(=O)(=O)c1cc(F)c(Oc2ccc(Cl)cc2)c(F)c1 (centres unmarked) [Example 3, 8-((4-(4-chlorophenoxy)-3,5-difluorophenyl)sulfonyl)-N-hydroxy-3-isonicotinoyl-3,8-diazabicyclo[3.2.1]octane-1-carboxamide]
0.05 to 1	1 to 10	0.05 to 1	O=C(CN1CCOCC1)N1CC2CCC(C(=O)NO)(C1)N2S(=O)(=O)c1cc(F)c(Oc2ccc(Cl)cc2)c(F)c1 (centres unmarked) [Example 4, 8-((4-(4-chlorophenoxy)-3,5-difluorophenyl)sulfonyl)-N-hydroxy-3-(2-morpholinoacetyl)-3,8-diazabicyclo[3.2.1]octane-1-carboxamide]
0.05 to 1	–	0.05 to 1	O=C(N1CCCCC1)N1CC2CCC(C(=O)NO)(C1)N2S(=O)(=O)c1cc(F)c(Oc2ccc(Cl)cc2)c(F)c1 (centres unmarked) [Example 6, 8-((4-(4-chlorophenoxy)-3,5-difluorophenyl)sulfonyl)-N-hydroxy-3-(piperidine-1-carbonyl)-3,8-diazabicyclo[3.2.1]octane-1-carboxamide]
0.05 to 1	1 to 10	1 to 10	O=C(CN1CCCCC1)N1CC2CCC(C(=O)NO)(C1)N2S(=O)(=O)c1cc(F)c(Oc2ccc(Cl)cc2)c(F)c1 (centres unmarked) [Example 7, 8-((4-(4-chlorophenoxy)-3,5-difluorophenyl)sulfonyl)-N-hydroxy-3-(2-(piperidin-1-yl)acetyl)-3,8-diazabicyclo[3.2.1]octane-1-carboxamide]
0.05 to 1	1 to 10	1 to 10	COCCOC(=O)N1CC2CCC(C(=O)NO)(C1)N2S(=O)(=O)c1ccc(-c2cccc(F)c2)nc1 (centres unmarked) [Example 9, 2-methoxyethyl 8-((6-(3-fluorophenyl)pyridin-3-yl)sulfonyl)-1-(hydroxycarbamoyl)-3,8-diazabicyclo[3.2.1]octane-3-carboxylate]
> 10	1 to 10	1 to 10	COCCOC(=O)N1CC2CCC(C(=O)NO)(C1)N2S(=O)(=O)c1ccc(OCc2ccc(F)cc2Cl)cc1 (centres unmarked) [Example 15, 2-methoxyethyl 8-((4-((2-chloro-4-fluorobenzyl)oxy)phenyl)sulfonyl)-1-(hydroxycarbamoyl)-3,8-diazabicyclo[3.2.1]octane-3-carboxylate]
0.05 to 1	0.05 to 1	0.05 to 1	COCCOC(=O)N1CC2CCC(C(=O)NO)(C1)N2S(=O)(=O)c1ccc(NC(=O)c2ccc(OC)cc2)cc1 (centres unmarked) [Example 17, 2-methoxyethyl 1-(hydroxycarbamoyl)-8-((4-(4-methoxybenzamido)phenyl)sulfonyl)-3,8-diazabicyclo[3.2.1]octane-3-carboxylate]
0.05 to 1	0.05 to 1	0.05 to 1	COCCOC(=O)N1CC2CCC(C(=O)NO)(C1)N2S(=O)(=O)c1ccc(Oc2ccc(C#N)cc2)nc1 (centres unmarked) [Example 18, 2-methoxyethyl 8-((6-(4-cyanophenoxy)pyridin-3-yl)sulfonyl)-1-(hydroxycarbamoyl)-3,8-diazabicyclo[3.2.1]octane-3-carboxylate]
0.05 to 1	–	0.05 to 1	O=C(Cc1ccncc1)N1CC2CCC(C(=O)NO)(C1)N2S(=O)(=O)c1cc(F)c(Oc2ccc(Cl)cc2)c(F)c1 (centres unmarked) [Example 23, 8-((4-(4-chlorophenoxy)-3,5-difluorophenyl)sulfonyl)-N-hydroxy-3-(2-(pyridin-4-yl)acetyl)-3,8-diazabicyclo[3.2.1]octane-1-carboxamide]
0.05 to 1	–	0.05 to 1	O=C(N1CCOCC1)N1CC2CCC(C(=O)NO)(C1)N2S(=O)(=O)c1cc(F)c(Oc2ccc(Cl)cc2)c(F)c1 (centres unmarked) [Example 24, 8-((4-(4-chlorophenoxy)-3,5-difluorophenyl)sulfonyl)-N-hydroxy-3-(morpholine-4-carbonyl)-3,8-diazabicyclo[3.2.1]octane-1-carboxamide]
0.05 to 1	–	0.05 to 1	O=C(CCN1CCOCC1)N1CC2CCC(C(=O)NO)(C1)N2S(=O)(=O)c1cc(F)c(Oc2ccc(Cl)cc2)c(F)c1 (centres unmarked) [Example 25, 8-((4-(4-chlorophenoxy)-3,5-difluorophenyl)sulfonyl)-N-hydroxy-3-(3-morpholinopropanoyl)-3,8-diazabicyclo[3.2.1]octane-1-carboxamide]
0.05 to 1	–	0.05 to 1	COCCOC(=O)N1C[C@H]2CC[C@@](C(=O)NO)(C1)N2S(=O)(=O)c1ccc(Oc2ccc(F)cc2)c(F)c1 [Example 30, 2-methoxyethyl (1S,5R)-8-((3-fluoro-4-(4-fluorophenoxy)phenyl)sulfonyl)-1-(hydroxycarbamoyl)-3,8-diazabicyclo[3.2.1]octane-3-carboxylate]
< 0.05	–	0.05 to 1	COCCOC(=O)N1C[C@@H]2CC[C@](C(=O)NO)(C1)N2S(=O)(=O)c1ccc(Oc2ccc(F)cc2)c(F)c1 [Example 31, 2-methoxyethyl (1R,5S)-8-((3-fluoro-4-(4-fluorophenoxy)phenyl)sulfonyl)-1-(hydroxycarbamoyl)-3,8-diazabicyclo[3.2.1]octane-3-carboxylate]
0.05 to 1	–	1 to 10	O=C(NO)C12CCC(CNC1)N2S(=O)(=O)c1cc(F)c(Oc2ccc(Cl)cc2)c(F)c1 (centres unmarked) [Example 32, 8-((4-(4-chlorophenoxy)-3,5-difluorophenyl)sulfonyl)-N-hydroxy-3,8-diazabicyclo[3.2.1]octane-1-carboxamide]
> 10	> 10	> 10	COCCOC(=O)N1CC2CCC(C(=O)NO)(C1)N2C(=O)c1cc(F)c(Oc2ccc(Cl)cc2)c(F)c1 (centres unmarked) [Example 34, 2-methoxyethyl 8-(4-(4-chlorophenoxy)-3,5-difluorobenzoyl)-1-(hydroxycarbamoyl)-3,8-diazabicyclo[3.2.1]octane-3-carboxylate]

Reference: patent US20250026761A1, “DIAZABICYCLOOCTANE DERIVATIVES USEFUL AS MATRIX METALLOPROTEINASE INHIBITORS” (VASA THERAPEUTICS SPÓLKA Z OGRANICZONA ODPOWIEDZIALNOSCIA, priority 2021, published 2025)
